Values of other authors in patent US20210115493A1, “METHODS FOR DETERMINING A DRUG DOSING REGIMEN” (Clear Creek Bio, Inc., priority 2019, published 2021).

Columns and labels:
solid tumor malignancies = settings: administered over a 5-day period followed by a 3-week gap, or once per week for three weeks followed by a 1-week gap

## Cc1c(-c2ccc(-c3ccccc3F)cc2)nc2ccc(F)cc2c1C(=O)O [brequinar, 6-fluoro-2-(2′-fluoro-1,1′biphenyl-4-yl)-3-methyl-4-quinoline carboxylic acid]
Solid tumor malignancies
  efficacy in treatment of solid tumor malignancies: ineffective
Mouse model of AML
  adverse effects of daily administration of high doses: weight loss, anemia, and thrombocytopenia
